Consider 4 molecules from BindingDB's records for doi:10.1002/cbic.201600697 (University of Tartu, 2017).

Conditions in all cases: pH 7.5
Experiment [1] has as its target T1, Serine/threonine-protein kinase haspin [470-798] (Homo sapiens, UniProt Q8TF76).
T1 construct: 470-798
T1 sequence (Q8TF76 whole entry): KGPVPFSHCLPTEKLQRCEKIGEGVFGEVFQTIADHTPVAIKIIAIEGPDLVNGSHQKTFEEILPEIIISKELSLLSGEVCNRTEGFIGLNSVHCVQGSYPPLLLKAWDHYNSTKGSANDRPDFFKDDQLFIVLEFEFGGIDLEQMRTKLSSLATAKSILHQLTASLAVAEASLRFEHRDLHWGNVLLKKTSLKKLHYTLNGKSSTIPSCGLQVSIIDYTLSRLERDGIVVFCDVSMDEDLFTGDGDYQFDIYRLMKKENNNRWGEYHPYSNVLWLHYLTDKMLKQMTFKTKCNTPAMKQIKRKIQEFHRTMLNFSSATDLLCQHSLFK
The experiment is described as follows: Kinetic Assay with Fluorescence Anisotropy. As for the experimental part: Association kinetics (Kon): All measurements were performed in HEPES (50 mM, pH 7.5) containing NaCl (150 mM), Tween-20 (0.005%) and DTT (5 mM) according to a previously published protocol.[Vaasa et al., Anal. Biochem., 385:85-93] The final volume of the assay mixture was […] The association kinetics assay with fluorescent probes and data analysis were performed according to published protocols.[Vaasa et al., Anal. Biochem., 385:85-93] The final volume of the assay mixture was […]. Dissociation kinetics (Koff): All measurements were performed in HEPES (50 mM, pH 7.5) containing NaCl (150 mM), Tween-20 0.005%) and DTT (5 mM). Data analysis was as reported previously,[Vaasa et al., Anal. Biochem., 385:85-93] by using method1 for compounds with shorter residence times, and method 2 for 1 in studies with haspin. The final volume of the assay mixture was […]. Kd' is calculated as Koff/Kon.

The target in experiment [2] is cAMP-dependent protein kinase catalytic subunit alpha (Homo sapiens, UniProt P17612). The experiment is described as follows: Equilibrium Binding/Displacement Assay with Fluorescence Anisotropy. The procedure:
(§1) All measurements were performed in HEPES (50 mm, pH 7.5) containing NaCl (150 mm), Tween-20 (0.005%) and DTT (5 mm) according to a previously published protocol.[Vaasa et al., Anal. Biochem., 385:85-93] The final volume of the assay mixture was […].

Experiment [3] concerns the target T1, Serine/threonine-protein kinase haspin [470-798]. The experiment is described as above. As for the experimental part: as §1

Where “and” joins values, the source holds several entries; their conditions need not be identical. Equal entries are not always repeated.

Take `CCCCCCCCCCCCCC(=O)NCCCC[C@@H](NC(=O)[C@H](C)NC(=O)[C@@H](NC(=O)[C@H](CCC(N)=O)NC(=O)[C@H](CCCNC(=N)N)NC(=O)[C@H](CCCCNC(=O)C[C@@H](NC(=O)CCCCCNC(=O)[C@H]1O[C@@H](n2ccc3c(N)ncnc32)[C@H](O)[C@@H]1O)C(=O)[O-])NC(=O)[C@H](CCCNC(=N)N)NC(=O)[C@H](C)N)C(C)O)C(=O)N[C@H](CCCCNC(=O)c1ccc(-c2c3ccc(=[N+](C)C)cc-3oc3cc(N(C)C)ccc23)c(C(=O)O)c1)C(N)=O` (stereo partly specified) [ARC-3380]: the equilibrium dissociation constant (Kd) in experiment [1] worked out at 14.9 nM; in experiment [2], 9.6 nM; in experiment [3], 8.4 nM.

For the molecule `CC(O)[C@H](NC(=O)[C@H](CCC(N)=O)NC(=O)[C@H](CCCNC(=N)N)NC(=O)[C@H](CCCCNC(=O)C[C@@H](NC(=O)CCCCCNC(=O)[C@H]1O[C@@H](n2ccc3c(N)ncnc32)[C@H](O)[C@@H]1O)C(=O)[O-])NC(=O)[C@H](CCCNC(=N)N)NC(=O)[C@H](C)N)C(=O)N[C@@H](C)C(=O)N[C@H](CCCCNC(=O)c1ccc(-c2c3ccc(=[N+](C)C)cc-3oc3cc(N(C)C)ccc23)c(C(=O)O)c1)C(N)=O` (stereo partly specified) [ARC-3384], the equilibrium dissociation constant (Kd) came out at 2.84 nM in experiment [1], 52 nM in experiment [2] and 11 nM in experiment [3].

`CC(O)[C@H](NC(=O)[C@H](CCC(N)=O)NC(=O)[C@H](CCCNC(=N)N)NC(=O)[C@H](CCCCNC(=O)C[C@@H](NC(=O)CCCCCNC(=O)[C@H]1O[C@@H](n2cc(I)c3c(N)ncnc32)[C@H](O)[C@@H]1O)C(=O)O)NC(=O)[C@H](CCCNC(=N)N)NC(=O)[C@H](C)N)C(=O)N[C@@H](C)C(=O)N[C@H](CCCCN)C(N)=O` (stereo partly specified) [ARC-3429]: the dissociation constant (Kd) in experiment [2] was 94 nM; in experiment [3], 0.14 nM and 0.019 nM.

With `CC(O)[C@H](NC(=O)[C@H](CCC(N)=O)NC(=O)[C@H](CCCNC(=N)N)NC(=O)[C@H](CCCCNC(=O)C[C@@H](NC(=O)CCCCCNC(=O)[C@H]1O[C@@H](n2cc(I)c3c(N)ncnc32)[C@H](O)[C@@H]1O)C(=O)[O-])NC(=O)[C@H](CCCNC(=N)N)NC(=O)[C@H](C)N)C(=O)N[C@@H](C)C(=O)N[C@H](CCCCNC(=O)c1ccc(-c2c3ccc(=[N+](C)C)cc-3oc3cc(N(C)C)ccc23)c(C(=O)O)c1)C(N)=O` (stereo partly specified) [ARC-3430], the dissociation constant Kd in experiment [1] was 0.1 nM; in experiment [2], 4.1 nM; in experiment [3], 0.5 nM and 0.12 nM.
